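These data come from cells grown in 96-well plates and exposed to compound for 48 hours at five concentrations. Here, GI50 denotes the concentration required for 50% inhibition of growth.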 The source made the active and inactive calls. Rule as the data show it: active = GI50 up to about 1.1 µM and inactive = higher.
Experiments:
Test in all cases: inhibition of tumour cell growth, NCI panel, 48 h
U-251 = test system: U-251
HCC 2998 = test system: HCC 2998
EKVX = test system: EKVX
CCRF-CEM = test system: CCRF-CEM
RXF 393 = test system: RXF 393
HOP-62 = test system: HOP-62
UACC-257 = test system: UACC-257
SK-MEL-28 = test system: SK-MEL-28
SK-MEL-2 = test system: SK-MEL-2
K562 = test system: K562
HCT-15 = test system: HCT-15
SNB-75 = test system: SNB-75
SF-539 = test system: SF-539
SF-295 = test system: SF-295
OVCAR-5 = test system: OVCAR-5
786-0 = test system: 786-0
NCI-H522 = test system: NCI-H522
HOP-92 = test system: HOP-92
SK-MEL-5 = test system: SK-MEL-5

SMILES	GI50 (U-251)	GI50 (HCC 2998)	GI50 (EKVX)	GI50 (CCRF-CEM)	GI50 (RXF 393)	GI50 (HOP-62)	GI50 (UACC-257)	GI50 (SK-MEL-28)	GI50 (SK-MEL-2)	GI50 (K562)	GI50 (HCT-15)	GI50 (SNB-75)	GI50 (SF-539)	GI50 (SF-295)	GI50 (OVCAR-5)	GI50 (786-0)	GI50 (NCI-H522)	GI50 (HOP-92)	GI50 (SK-MEL-5)
COc1cc(/C=N/n2c(C)n[nH]c2=O)cc(OC)c1OC	> 100 µM (inactive)	> 100 µM (inactive)	32.6 µM (inactive)	89.5 µM (inactive)	27.4 µM (inactive)	> 100 µM (inactive)	> 100 µM (inactive)	> 100 µM (inactive)	> 100 µM (inactive)	> 100 µM (inactive)	> 100 µM	> 100 µM (inactive)	> 100 µM (inactive)	> 100 µM (inactive)	80.5 µM (inactive)	> 100 µM (inactive)			
COc1ccc(-c2c(N)n(-c3nc4ccccc4s3)c(=O)c3cc([N+](=O)[O-])ccc23)cc1	7.6 µM (inactive)		14 µM (inactive)	4.44 µM (inactive)	14.2 µM (inactive)	14 µM (inactive)	67.8 µM (inactive)	> 100 µM (inactive)	25.4 µM (inactive)	23.2 µM (inactive)	41.8 µM	8.43 µM (inactive)	5.83 µM (inactive)	22.3 µM (inactive)	22.2 µM (inactive)	4.29 µM (inactive)	10.7 µM (inactive)	16.4 µM (inactive)	
COc1ccccc1C(N)c1ccccc1 (centres undefined)	> 100 µM (inactive)	> 100 µM (inactive)	> 100 µM (inactive)	> 100 µM (inactive)	> 100 µM (inactive)	> 100 µM (inactive)	> 100 µM (inactive)	> 100 µM (inactive)		> 100 µM (inactive)	> 100 µM	95.9 µM (inactive)	> 100 µM (inactive)	> 100 µM (inactive)	> 100 µM (inactive)	> 100 µM (inactive)	> 100 µM (inactive)	36 µM (inactive)	> 100 µM (inactive)
O=C(O)C12C=CC(C1)c1ccccc12 (centres undefined)	> 100 µM (inactive)	> 100 µM (inactive)		> 100 µM (inactive)		> 100 µM (inactive)	> 100 µM (inactive)	> 100 µM (inactive)		> 100 µM (inactive)	> 100 µM			> 100 µM (inactive)	> 100 µM (inactive)	> 100 µM (inactive)		> 100 µM (inactive)	> 100 µM (inactive)
Cc1ccc(NC(=O)CCC(=O)C2CC(=O)CC/C2=N\NC(=O)c2cc3ccccc3cc2O)cc1C (centres undefined)	40.1 µM (inactive)	18.7 µM (inactive)	29 µM (inactive)	11.5 µM (inactive)		43.4 µM (inactive)	20.7 µM (inactive)	65 µM (inactive)	26.4 µM (inactive)	8.18 µM (inactive)	14.7 µM	17.1 µM (inactive)	30.1 µM (inactive)	32.1 µM (inactive)	22 µM (inactive)	25.8 µM (inactive)	16.6 µM (inactive)	14.3 µM (inactive)	14.5 µM (inactive)
COc1ccc(Cc2nccc3cc(OC)c(OC)cc23)cc1	> 100 µM (inactive)	> 100 µM (inactive)	> 100 µM (inactive)	65.6 µM (inactive)		> 100 µM (inactive)	16.4 µM (inactive)	> 100 µM (inactive)	> 100 µM (inactive)	48 µM (inactive)	57.3 µM	33.1 µM (inactive)	> 100 µM (inactive)	32.4 µM (inactive)	40.4 µM (inactive)	> 100 µM (inactive)	37.8 µM (inactive)		35.7 µM (inactive)
CCCCn1c(-c2ccccc2)cs/c1=N\N=C1C=C(C(C)(C)C)C(=O)C(C(C)(C)C)=C1	> 100 µM (inactive)	> 100 µM (inactive)	> 100 µM (inactive)	> 100 µM (inactive)	> 100 µM (inactive)	> 100 µM (inactive)	> 100 µM (inactive)		> 100 µM (inactive)	> 100 µM (inactive)	> 100 µM		> 100 µM (inactive)	> 100 µM (inactive)	> 100 µM (inactive)	> 100 µM (inactive)			
COC(=O)c1cc(C)n(NC(=O)OC(C)(C)C)c1C	> 100 µM (inactive)	> 100 µM (inactive)	> 100 µM (inactive)	> 100 µM (inactive)	> 100 µM (inactive)	> 100 µM (inactive)	> 100 µM (inactive)	> 100 µM (inactive)	> 100 µM (inactive)	> 100 µM (inactive)	> 100 µM	> 100 µM (inactive)	> 100 µM (inactive)	> 100 µM (inactive)	> 100 µM (inactive)	> 100 µM (inactive)	> 100 µM (inactive)		> 100 µM (inactive)
CCCCCCCCCCCCCCCC[N+](C)(C)Cc1ccc(C[N+](C)(C)CCCCCCCCCCCCCCCC)cc1	1.96 µM (inactive)	3.72 µM (inactive)	3 µM (inactive)	1.46 µM (inactive)	0.923 µM (active)	4.76 µM (inactive)	3.4 µM (inactive)	2.3 µM (inactive)	2.04 µM (inactive)	2.06 µM (inactive)	3.66 µM	1.94 µM (inactive)	2.02 µM (inactive)	1.74 µM (inactive)	1.91 µM (inactive)	2.5 µM (inactive)	2.58 µM (inactive)		6.12 µM (inactive)
